Active and inactive are the calls of the source. The calls are words filed in the database; no cut-off is given here.
Columns and labels:
[1] = Binding affinity to unfractionated heparin in saline at pH 7.4 assessed as binding constant by ITC analysis
[2] = Binding affinity to unfractionated heparin in saline at pH 7.4 assessed as change in enthalpy by ITC analysis
[3] = Binding affinity to enoxaparin sodium in saline at pH 7.4 assessed as change in enthalpy by ITC analysis
[4] = Binding affinity to nadroparin calcium in saline at pH 7.4 assessed as change in enthalpy by ITC analysis
[5] = Binding affinity to unfractionated heparin in saline at pH 7.4 assessed as change in entropy by ITC analysis
[6] = Binding affinity to unfractionated heparin in saline at pH 7.4 assessed as change in gibbs free energy by ITC analysis
[7] = Binding affinity to dalteparin sodium in saline at pH 7.4 assessed as change in gibbs free energy by ITC analysis
[8] = test system: Blood; assay: Ex vivo neutralization of unfractionated heparin in Sprague-Dawley rat whole blood assessed as restoration of blood coagulation at 10 to 15 ug/ml incubated for 15 mins; type: functional, tissue-based; settings: dose 10-15 µg/ml
[9] = test system: Blood; assay: Ex vivo neutralization of enoxaparin sodium in Sprague-Dawley rat whole blood assessed as restoration of blood coagulation at 10 to 15 ug/ml incubated for 15 mins; type: functional, tissue-based; settings: dose 10-15 µg/ml
[10] = species: Homo sapiens; assay: Reversal of anticoagulation of enoxaparin sodium in human whole blood assessed as restoration of normal clotting time at 5 to 20 ug/ml incubated for 5 mins by thromboelastography; type: tissue-based; settings: dose 5-20 µg/ml
[11] = species: Homo sapiens; assay: Reversal of anticoagulation of enoxaparin sodium in human whole blood assessed as restoration of normal coagulation rate at 5 to 20 ug/ml incubated for 5 mins by thromboelastography; type: tissue-based; settings: dose 5-20 µg/ml
[12] = species: Homo sapiens; assay: Reversal of anticoagulation of nadroparin calcium in human whole blood assessed as restoration of normal coagulation rate at 5 to 20 ug/ml incubated for 5 mins by thromboelastography; type: tissue-based; settings: dose 5-20 µg/ml
[13] = species: Homo sapiens; assay: Reversal of anticoagulation of dalteparin sodium in human whole blood assessed as restoration of normal clotting strength at 2 to 20 ug/ml incubated for 5 mins by thromboelastography; type: tissue-based; settings: dose 2-20 µg/ml
[14] = species: Homo sapiens; assay: Reversal of anticoagulation of […] in human whole blood assessed as restoration of normal clotting strength at 2 to 20 ug/ml incubated for 5 mins by thromboelastography; type: tissue-based; settings: dose 2-20 µg/ml
[15] = Binding affinity to unfractionated heparin in saline at pH 7.4 assessed as increase in fluorescence by measuring inflection point by fluorescence titration method
[16] = Binding affinity to nadroparin calcium in saline at pH 7.4 assessed as increase in fluorescence by measuring inflection point by fluorescence titration method
[17] = species: Homo sapiens; assay: Reversal of anticoagulation of unfractionated heparin in human whole blood assessed as minimum effective dose incubated for 5 mins by thromboelastography; type: tissue-based
[18] = species: Homo sapiens; assay: Reversal of anticoagulation of dalteparin sodium in human whole blood assessed as minimum effective dose incubated for 5 mins by thromboelastography; type: tissue-based
[19] = species: Homo sapiens; assay: Reversal of anticoagulation of enoxaparin sodium in human whole blood assessed as minimum effective dose incubated for 5 mins by thromboelastography; type: tissue-based
[20] = species: Homo sapiens; assay: Reversal of anticoagulation of nadroparin calcium in human whole blood assessed as minimum effective dose incubated for 5 mins by thromboelastography; type: tissue-based
[21] = Effect on bleeding time in ICR mouse at 0.4 mg/kg, iv treated for 5 mins; type: toxicity, organism-based; settings: in vivo
[22] = Induction of blood loss in ICR mouse at 0.4 mg/kg, iv treated for 5 mins; type: toxicity, organism-based; settings: in vivo
[23] = test system: Mus musculus; assay: In vivo antagonism of unfractionated heparin induced anticoagulation in ICR mouse assessed as blood loss at 0.4 mg/kg, iv administered via tail vein pretreated with heparin for 5 mins followed by compound addition and measured after 5 mins (reference value: 324.4 +/- 139.5 microL); type: functional
[24] = test system: Mus musculus; assay: In vivo antagonism of dalteparin sodium induced anticoagulation in ICR mouse assessed as bleeding time at 0.4 mg/kg, iv administered via tail vein pretreated with heparin for 5 mins followed by compound addition and measured after 5 mins (reference value: 96.5 +/- 20.6 min); type: functional
[25] = test system: Rattus norvegicus; assay: In vivo antagonism of enoxaparin sodium induced anticoagulation in Sprague-Dawley rat assessed as clotting time at 0.4 mg/kg, iv administered via tail vein pretreated with enoxaparin sodium for 5 mins followed by compound addition and measured after 2.5 mins by thromboelastography; type: functional
[26] = test system: Rattus norvegicus; assay: In vivo antagonism of enoxaparin sodium induced anticoagulation in Sprague-Dawley rat assessed as clotting strength at 0.4 mg/kg, iv administered via tail vein pretreated with enoxaparin sodium for 5 mins followed by compound addition and measured after 2.5 mins by thromboelastography; type: functional
[27] = test system: Rattus norvegicus; assay: In vivo antagonism of enoxaparin sodium induced anticoagulation in Sprague-Dawley rat assessed as clotting rate at 0.4 mg/kg, iv administered via tail vein pretreated with enoxaparin sodium for 5 mins followed by compound addition and measured after 2.5 mins by thromboelastography; type: functional
[28] = test system: Rattus norvegicus; assay: In vivo antagonism of enoxaparin sodium induced anticoagulation in Sprague-Dawley rat assessed as restoration of normal clotting rate at 1 mg/kg, iv administered via tail vein pretreated with enoxaparin sodium for 5 mins followed by compound addition and measured after 2.5 mins by thromboelastography; type: functional, organism-based
[29] = Cytotoxicity against rat H9c2 cells assessed as cell viability at 300 ug/ml incubated for 24 hrs by CCK-8 assay relative to control; type: toxicity, cell-based; settings: at 300 µg/mL, read-out: Activity
[30] = Toxicity in ICR mouse assessed as histopathological changes in liver at 25 mg/kg, iv administered as single dose through tail vein and measured after 14 days by H and E staining based analysis; type: organism-based; settings: in vivo, 336 h, time 14 day
[31] = Toxicity in ICR mouse assessed as histopathological changes in kidneys at 25 mg/kg, iv administered as single dose through tail vein and measured after 14 days by H and E staining based analysis; type: organism-based, Kidney; settings: in vivo, 336 h, time 14 day
[32] = Toxicity in Sprague-Dawley rat assessed as change in urine indexes at 0.4 mg/kg, iv measured after 5 hrs; type: organism-based; settings: in vivo
[33] = test system: Blood; assay: Blood compatibility in human whole blood assessed as effect on clotting strength at 0 to 20 ug/ml measured upto 50 mins by thromboelastography; type: toxicity, tissue-based; settings: dose 0-20 µg/ml
[34] = Blood compatibility in bovine plasma assessed as activated partial thromboplastin time at <45 ug/ml by turbidimetry method; type: toxicity, cell-free, Bos taurus; settings: cattle, dose < 45 µg/ml
[35] = test system: Erythrocyte; assay: Hemolytic activity in Sprague-Dawley rat red blood cells at 512 ug/ml; type: toxicity, cell-based; settings: dose 512 µg/ml

SMILES: NCCOc1ccc(-c2cc[n+](Cc3ccc(C(c4ccc(C[n+]5ccc(-c6ccc(OCCN)c(OCCN)c6)cc5)cc4)(c4ccc(C[n+]5ccc(-c6ccc(OCCN)c(OCCN)c6)cc5)cc4)c4ccc(C[n+]5ccc(-c6ccc(OCCN)c(OCCN)c6)cc5)cc4)cc3)cc2)cc1OCCN.[Cl-].[Cl-].[Cl-].[Cl-]
- Ka [1]: 2.92e+07 M⁻¹
- deltaH [2]: -5.86 kcal/mol
- deltaH [3]: -7.86 kcal/mol
- deltaH [4]: -6.53 kcal/mol
- -TdeltaS [5]: -4.32 kcal/mol
- deltaG [6]: -10.2 kcal/mol
- deltaG [7]: -10.5 kcal/mol
- Activity [8]: Active
- Activity [9]: Active
- Activity [10]: Active
- Activity [11]: Active
- Activity [12]: Active
- Activity [13]: Active
- Activity [14]: Active
- IP [15]: 2.4
- IP [16]: 3
- MED [17]: 4 µg/mL
- MED [18]: 4 µg/mL
- MED [19]: 4 µg/mL
- MED [20]: 4 µg/mL
- Activity [21]: Non-Toxic
- Activity [22]: Non-Toxic
- Activity [23]: 26.1 µL
- Time [24]: 20.9 min
- Time [25]: 3.63 min
- Activity [26]: 67 mm
- Activity [27]: 1.95 min
- Activity [28]: Active
- viability at 24 h, 300 ug/ml [29]: > 80%
- Activity [30]: Non-Toxic
- Activity [31]: Non-Toxic
- Activity [32]: Non-Toxic
- Activity [33]: Toxic
- APTT [34]: 23 s
- Activity [35]: Non-Toxic
